Laboratory results published in patent US8367729B2, “Composition with preventive or improvement effect on symptoms or diseases associated with stress-induced behavior disorders” (Suntory Holdings Limited, priority 2004, dated 2013).

Key:
[1] = test system: IL-1β induced stress anxiety behavior models; conditions: administration of free arachidonic acid; J Lipid Res. 44, 1984, 2003; cited from earlier work
[2] = test system: mice subjected to restraint stress; test: Behavioral observation test (Irwin neurobehavioral test method) after 6-hour restraint stress; type: in vivo, male ICR mice; conditions: conclusion of Example 3
Text: The experimental groups consisted of 51 two- to three-month-old male ICR mice, divided into a control diet group (27 mice) and a TG[…]-containing diet group (24 mice), with the control diet or TG[…]-containing diet shown in Table 1 being given to each group. Each group was further divided into non-restrained groups (non-restrained control diet group (9), non-restrained arachidonic acid (ARA) diet group (12)) and restrained groups (restrained control diet group (18), restrained ARA diet group (12)). The restraining was accomplished using a wire mesh restraining tube, once for a 6 hour period three weeks after the start of feeding. The control diet or TG[…]-containing diet shown in Table 1 continued to be fed to each group for the remaining experiment period. The TG[…] used for the TG[…]-containing diet was the product obtained in Example 1. Since the daily ingestion was approximately 5 g per mouse, the daily intake of TG[…] was 25 mg per mouse. Also, since the total fatty acids bonded to the arachidonic acid-containing oils or fats (triglycerides) prepared in Example 1 included 40 wt % arachidonic acid, the daily intake of arachidonic acid was 10 mg per mouse. The 6-hour restraint with a wire mesh restraining tube was immediately followed by a behavioral observation test. […]

CCCCC/C=C\C/C=C\C/C=C\C/C=C\CCCC(=O)O [arachidonic acid]
effect on IL-1β induced stress anxiety behavior [1]: not effective | overall effect on behavioral patterns altered as a result of stress [2]: exhibits an improving effect against behavioral disorders
